Source: the METLIN SMRT retention time set (Domingo-Almenara et al. 2019)

Test: gradient 5% acetonitrile 3 min, to 50% in 2 min, to 85% in 15 min, held 3 min, 100 µL/min
Details: column: Zorbax Extend-C18 2.1 x 50 mm; eluents: water / acetonitrile, 0.1% formic acid
Outline: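 A Zorbax Extend-C18 column (2.1 × 50 mm, 1.8 μm) run at 100 μL/min with water and acetonitrile, both containing 0.1% formic acid, separated mixtures of ~100 pure standards. The HPLC was coupled to a quadrupole time-of-flight mass spectrometer operated in positive and negative ionization mode, with dead and dwell volumes of 40 μL and 900 μL. Each retention time was taken from a computationally picked adduct peak that was then manually inspected.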

Compound	RP-LC retention time
Cc1ccc(-c2noc(-c3cc(N4CCN(C)CC4)nc4ccccc34)n2)cc1	835 s
COc1ccc(Cl)cc1C(=O)CN1C(=O)COc2ccccc2C1=O	988 s
Cc1cc(NS(=O)(=O)c2cc3n(c2)CCCNC3=O)ccc1F	671 s
Fc1ccc(-c2nnc(Cc3nc(-c4ccccc4)no3)o2)cc1	992 s
CC(C)C(=O)N1CCC2(CC1)NCc1ccccc1-n1ccnc12	574 s
O=C(NCc1ccc(Cl)cc1)c1c(O)c2cccnc2n(-c2ccccc2)c1=O	1260 s
COc1cccc(CNC(=O)Cn2c(=O)c3cc(C)nn3c3ncccc32)c1	698 s
C=CCn1c(C)c(CC(=O)NC(C)CC)c(=O)n2nc(-c3ccc(C)cc3)nc12 (centres undefined)	824 s
CC1(C)CC(=O)c2cn(-c3ccccc3)c(=O)c(C(=O)Nc3ccc(Cl)cn3)c2C1	1050 s
COCCN1C(=O)Cc2ccccc2C1C(=O)NCc1ccc(Cl)cc1 (centres undefined)	898 s
COc1cc(C(=O)Nc2c(-c3ccccc3)nc3ccccn23)cc(OC)c1OC	636 s
Cc1ncoc1C(=O)N1CCC(c2noc(-c3ccccc3)n2)C1 (centres undefined)	763 s
CCOc1ccc(-c2cn3ccn(-c4cccc(Cl)c4)c(=O)c3n2)cc1	899 s
COc1ccc(C2=NN(S(C)(=O)=O)C(c3ccc4nccnc4c3)C2)c(F)c1 (centres undefined)	740 s
COc1ccccc1C(=O)N1CCc2cn(C)c3cccc(c23)C1	920 s
O=C(NC1CCCCCC1)C1CCN(c2cc(N3CCSCC3)ncn2)CC1	710 s
CCN1C(=O)c2ccccc2Oc2ccc(C(=O)NC3CCCC3)cc21	891 s
CCCCC(=O)N1CC(c2nc(-c3ccc(F)cc3)no2)C2(CCOCC2)C1 (centres undefined)	904 s
Cc1cc(C2CCCN2C(=O)Cc2ccc(F)cc2)no1 (centres undefined)	775 s
COc1ccc(-c2noc(CN3N=NC4C(=O)N(c5cccc(F)c5)C(=O)C43)n2)cc1OC (centres undefined)	1260 s
O=C(NCc1ccco1)C1CCN(c2cncnc2N2CCOCC2)CC1	578 s
COc1cc(-n2cnc3cc(C(=O)NCC4CCCO4)ccc32)cc(OC)c1OC (centres undefined)	660 s

Compound	RP-LC retention time
COc1ccc(CCc2nc3nccc(-c4ccsc4)n3n2)cc1	946 s
COc1ccc(C(=O)N2CCC3(C2)C(=O)N(C)c2ccccc23)cc1OC (centres undefined)	714 s
CCOC(=O)CNC(=O)N1CCN(CCn2c(C(F)(F)F)nc3cccnc32)CC1	588 s
O=C(COc1ccccc1Cl)N1CCN(c2cc(-c3ccccc3)ncn2)CC1	628 s
CCCN1C(=O)C2CCC(=O)N2c2ccc(C(=O)Nc3cccc(SC)c3)cc21 (centres undefined)	879 s
O=S(=O)(Cc1ccccc1)N1CCC(Cc2nc(-c3cccnc3)n[nH]2)C1 (centres undefined)	628 s
COc1ccc(CC(=O)Nc2ccc3c(c2)Sc2ncccc2C(=O)N3C)cc1	748 s
O=C(NCc1ccco1)C(=O)NCC1OCCN1C(=O)c1ccc(Cl)cc1 (centres undefined)	705 s
Cc1noc(-c2cccn2Cc2cccc(F)c2)n1	962 s
Cc1oc(-c2[nH]ncc2C(=O)N(C)C)cc1S(=O)(=O)NC1CCCC1	650 s
COc1ccc(N2CC(NC(=O)C(=O)c3c(C)[nH]c4ccccc34)CC2=O)cc1 (centres undefined)	707 s
CC(=O)Nc1ccc(C)cc1S(=O)(=O)N1CCC2(CC1)Nc1ccc(C)c(C)c1-n1cccc12	1070 s
CCCn1cc(CCNS(=O)(=O)c2ccc(Cl)s2)c2cccnc21	899 s
COc1cc(C(=O)Nc2nc(-c3ccc4c(c3)N(C)C(=O)CO4)cs2)cc(OC)c1OC	860 s
COC(=O)c1ccc(NC(=O)Cn2c(=O)cc(-c3nc(C(C)C)no3)c3ccccc32)cc1	990 s
COc1ccc(S(=O)(=O)N2CCC(n3cnc4c(C)cccc4c3=O)CC2)cc1OC	881 s
O=c1cc(CSc2nnc(-c3cccc(Cl)c3)o2)nc2sccn12	832 s
COc1ccc(F)cc1S(=O)(=O)N(C)CC1(C)CCOCC1	864 s
C(=N/NC1=NCCN1)/c1c2ccccc2c(/C=N\NC2=NCCN2)c2ccccc12	590 s
CNC(=O)Cc1ccc(NS(=O)(=O)Cc2ccc(Cl)cc2)cc1	703 s
COc1ccc(S(=O)(=O)Nc2ccccc2C(=O)Nc2ccc3c(c2)OCCO3)cc1	880 s
O=C(CCC1CCCN(C(=O)Nc2ccc(Cl)cc2)C1)NCc1ccccc1 (centres undefined)	884 s
